# Source: patent publication USRE38460E1 (priority 1994, dated 2004)
# pIC50: −log10 of the molar value. Where two headings read alike, the source gives them in different places.
# Columns and labels:
# acetylcholinesterase = target: T1, acetylcholinesterase (Rattus norvegicus, UniProt P37136); test: Study on kinetics of enzyme; assay type: biochemical
# T1 sequence (P37136 32-614): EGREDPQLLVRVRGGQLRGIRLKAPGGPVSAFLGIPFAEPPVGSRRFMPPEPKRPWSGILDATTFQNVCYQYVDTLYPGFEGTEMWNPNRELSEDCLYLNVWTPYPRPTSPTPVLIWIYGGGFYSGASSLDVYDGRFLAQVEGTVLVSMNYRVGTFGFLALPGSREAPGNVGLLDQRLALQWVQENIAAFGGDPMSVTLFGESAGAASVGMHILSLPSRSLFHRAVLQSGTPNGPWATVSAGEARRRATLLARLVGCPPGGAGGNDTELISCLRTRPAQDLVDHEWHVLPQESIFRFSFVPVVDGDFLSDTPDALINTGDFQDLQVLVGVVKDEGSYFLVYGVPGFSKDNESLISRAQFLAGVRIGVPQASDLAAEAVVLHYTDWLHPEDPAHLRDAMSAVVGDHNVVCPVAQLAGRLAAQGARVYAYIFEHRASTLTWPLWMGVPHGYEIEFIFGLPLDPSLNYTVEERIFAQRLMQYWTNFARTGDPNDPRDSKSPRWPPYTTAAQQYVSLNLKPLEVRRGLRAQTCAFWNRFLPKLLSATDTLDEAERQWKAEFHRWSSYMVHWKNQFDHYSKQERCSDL
# Protocol: In the present invention a calorimetric method reported by Ellman was used to determine the effect of inhibition of the pharmaceutical on enzyme activity. The total volume of the solution of the enzyme activity reaction was 4 ml, which contained 0.3 mmol/L of acetylcholin iodide (acetylcholinesterase substrate), or 0.4 mmol/L of butyrylcholin iodide (butyrylcholinesterase substrate), 1 ml of the buffer solution of 25 mmol/L of phosphate of pH 7.4, and water to make up to 4 ml (including the amount of the enzyme solution and the testing reagent added afterwards). After the solution was kept at 37° C. for 5 minutes, 0.1-0.2 ml of enzyme solution (red cell membrane or serum of rat) was added, or 0.1-0.3 ml of the testing reagent was added at the same time. The solution was kept at the same temperature for another 8 minutes. Then 1 ml of 3% of sodium lauryl sulphate was added to terminate the reaction. Finally 1 ml of 0.2% 5,5-dithio-2,2′-nitro-benzoic acid solution was added for developing. “721” spectrophotometer was used to determine the density of light at 440 nm. A solution without addition of the pharmaceutical to inhibit the enzyme activity was used as a control (100%).
# AChE = target: T2, AChE (Rattus norvegicus, UniProt P37136); test: biochemical; conditions: Table 6
# T2 construct: 0.1-0.2 ml of enzyme solution (red cell membrane or serum of rat) was added; from tissue; host or cells: rat tissue
# T2 sequence (P37136 32-614): T1 sequence (P37136 32-614)
# Protocol: (§1) In the present invention a calorimetric method reported by Ellman was used to determine the effect of inhibition of the pharmaceutical on enzyme activity. The total volume of the solution of the enzyme activity reaction was 4 ml, which contained 0.3 mmol/L of acetylcholin iodide (acetylcholinesterase substrate), or 0.4 mmol/L of butyrylcholin iodide (butyrylcholinesterase substrate), 1 ml of the buffer solution of 25 mmol/L of phosphate of pH 7.4, and water to make up to 4 ml (including the amount of the enzyme solution and the testing reagent added afterwards). After the solution was kept at 37° C. for 5 minutes, 0.1-0.2 ml of enzyme solution (red cell membrane or serum of rat) was added, or 0.1-0.3 ml of the testing reagent was added at the same time. The solution was kept at the same temperature for another 8 minutes. Then 1 ml of 3% of sodium lauryl sulphate was added to terminate the reaction. Finally 1 ml of 0.2% 5,5-dithio-2,2′-nitro-benzoic acid solution was added for developing.
# [1] = system: memory impairment caused by scopolamine; test: Mouse passive escape operation (platform jumping method), memory impairment caused by scopolamine; assay type: in vivo, mice; conditions: for delitescence of get-down (sec ± SEM): mice, tested after 24 hours; for effect on improving memory (in words): mouse passive escape operation, compared with compound of formula (I)
# [2] = target: T3, acetylcholinesterase (AChE) (Rattus norvegicus, UniProt P37136); test: biochemical; assay type: biochemical; conditions: for pIC50 / IC50 ratio BuChE/AChE: Table 1; for pIC50: AChE taken from rat's red cell membrane; for IC50 ratio BuChE/AChE: red cell membrane AChE, serum BuChE; for inhibition effect on acetylcholinesterase (in words) / inhibition effect on acetylcholinesterase compared with huperzine A / inhibition effect on acetylcholinesterase compared with physostigmine and galanthamine: see Tables 1, 2 and 6
# T3 construct: from tissue; host or cells: rat red cell membrane
# Protocol: as §1
# (§2) AChE taken from rat's red cell membrane. BuChE taken from rat's serum.
# T3 sequence (P37136 other isoform, or with tags, fused parts or gaps): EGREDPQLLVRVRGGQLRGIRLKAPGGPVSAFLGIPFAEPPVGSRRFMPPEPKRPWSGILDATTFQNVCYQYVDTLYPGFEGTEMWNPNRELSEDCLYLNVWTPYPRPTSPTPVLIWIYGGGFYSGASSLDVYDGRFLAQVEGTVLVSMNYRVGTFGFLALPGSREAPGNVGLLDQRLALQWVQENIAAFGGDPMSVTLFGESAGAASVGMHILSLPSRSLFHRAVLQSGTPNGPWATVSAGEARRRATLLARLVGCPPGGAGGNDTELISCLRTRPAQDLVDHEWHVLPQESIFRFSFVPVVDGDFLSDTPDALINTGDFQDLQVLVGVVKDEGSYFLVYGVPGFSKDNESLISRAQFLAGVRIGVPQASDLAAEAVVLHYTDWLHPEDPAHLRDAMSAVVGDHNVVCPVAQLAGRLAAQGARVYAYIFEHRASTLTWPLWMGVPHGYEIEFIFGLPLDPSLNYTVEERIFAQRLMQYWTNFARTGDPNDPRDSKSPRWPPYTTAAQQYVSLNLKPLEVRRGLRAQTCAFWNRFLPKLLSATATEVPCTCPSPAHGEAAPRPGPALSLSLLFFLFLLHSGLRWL
# BuChE = target: T4, BuChE (Rattus norvegicus, UniProt Q9JKC1); test: In-vitro anticholinesterase effect (Table 6), BuChE; assay type: biochemical; conditions: read-out: inhibition activity BuChE at 10(μM)
# T4 construct: from tissue; host or cells: rat serum
# Protocol: as §1
# [3] = target: T5, butyrylcholinesterase (BuChE) (Rattus norvegicus, UniProt Q9JKC1); test: In-vitro anticholinesterase effect, colorimetric method (Ellman), BuChE from rat's serum; assay type: biochemical; conditions: for inhibition effect on butyrylcholinesterase (pseudo enzyme) compared with huperzine A: see Tables 1, 2 and 6
# T5 construct: from tissue; host or cells: rat serum
# Protocol: as §1, §2
# (§3) AChE taken from homogenate of rat's cortex. BuChE taken from rat's serum.
# [4] = target: T6, acetylcholinesterase (AChE) (Rattus norvegicus, UniProt P37136); test: biochemical; assay type: biochemical; conditions: Table 2; for pIC50: AChE taken from homogenate of rat's cortex; for IC50 ratio BuChE/AChE: cortex AChE, serum BuChE
# T6 construct: from tissue; host or cells: homogenate of rat cortex
# T6 sequence (P37136 32-614): T1 sequence (P37136 32-614)
# Protocol: as §1, §3
# mice = test: Critical toxicity on mice (Bliss method); assay type: in vivo; conditions: for LD50 relative to that of the compound of formula (I): mice; for critical toxicity compared with compound (I): mouse, in vivo
# Protocol: (§4) Test of each pharmaceutical was carried out using 4-5 dosage group.
# (§5) Mortality within 7 days was observed.
# [5] = Critical toxicity on mice (Bliss method); assay type: in vivo; conditions: mouse, in vivo, po, mice, p.o., Bliss method, mortality within 7 days
# Protocol: as §4, §5
# [6] = system: memory impairment caused by scopolamine; test: 8-arm maze spatial distinction operation of rat, memory impairment caused by scopolamine; assay type: in vivo; conditions: for effect on improving memory (in words): 8-arm maze spatial distinction operation of rat, compared with compound of formula (I); for No. of mistakes in operation before reaching the standard, reference memory (X + SEM) / No. of mistakes in operation before reaching the standard, working memory (X + SEM): rats, 8-arm maze
# [7] = scopolamine + derivative 2 + 0.2 mg/kg ip + po
# [8] = scopolamine + derivative 2 + 0.4 mg/kg ip + po
# [9] = first of two columns headed LD50, read-out: LD50 (first column) (95% confidence limit)
# [10] = second of two columns headed LD50, read-out: LD50 (second column) (95% confidence limit)
# [11] = scopolamine + derivative 0.124 + 0.2 mg/kg ip + po
# [12] = scopolamine + derivative 0.2 ± 0.1 mg/kg ip + po
# [13] = scopolamine + derivative 0.2 ± 0.3 mg/kg ip + po
# T5 sequence (Q9JKC1 24-597): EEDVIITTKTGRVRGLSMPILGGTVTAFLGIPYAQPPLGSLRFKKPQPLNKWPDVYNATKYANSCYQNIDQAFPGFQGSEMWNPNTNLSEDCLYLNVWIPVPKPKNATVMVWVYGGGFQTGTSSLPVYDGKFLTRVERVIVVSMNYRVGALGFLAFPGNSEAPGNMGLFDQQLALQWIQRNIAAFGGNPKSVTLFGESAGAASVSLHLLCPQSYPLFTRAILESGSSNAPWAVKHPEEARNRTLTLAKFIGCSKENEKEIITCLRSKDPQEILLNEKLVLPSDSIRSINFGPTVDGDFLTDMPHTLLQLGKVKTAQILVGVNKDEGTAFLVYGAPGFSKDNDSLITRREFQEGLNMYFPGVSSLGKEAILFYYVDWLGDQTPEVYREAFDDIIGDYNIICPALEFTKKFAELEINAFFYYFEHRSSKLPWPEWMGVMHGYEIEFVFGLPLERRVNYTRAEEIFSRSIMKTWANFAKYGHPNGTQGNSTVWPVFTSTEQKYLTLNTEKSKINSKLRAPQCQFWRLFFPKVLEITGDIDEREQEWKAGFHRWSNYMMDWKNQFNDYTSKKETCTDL
# T4 sequence (Q9JKC1 24-597): as above
Compound,combination with acetylcholinesterase (reversibility) (acetylcholinesterase),"delitescence of get-down (sec ± SEM) [1, 7] [s]","delitescence of get-down (sec ± SEM) [1, 8] [s]",effect on improving memory (in words) [1],inhibitor of acetylcholinesterase (summary in words) [2],pIC50 [2],IC50 ratio BuChE/AChE [2],inhibition effect on acetylcholinesterase (in words) [2],inhibition effect on acetylcholinesterase compared with huperzine A [2],inhibition effect on acetylcholinesterase compared with physostigmine and galanthamine [2],pIC50 [3],inhibition effect on butyrylcholinesterase (pseudo enzyme) compared with huperzine A [3],pIC50 [4],IC50 ratio BuChE/AChE [4],LD50 relative to that of the compound of formula (I) (mice),critical toxicity compared with compound (I) (mice),"LD50 [5, 9] [mg/kg]","LD50 [5, 10] [mg/kg]",effect on improving memory (in words) [6],further results
CC=C1C2C=C(C)CC1(N=Cc1ccc(OC)c(O)c1)c1ccc(=O)[nH]c1C2 (stereo not drawn) [derivative No. 18],reversible,67.7 ± 11.7,48.7 ± 6.9,very strong effect,highly effective selective inhibitors,6.82,709.9,remarkable inhibition effect,slightly weaker,apparently stronger,3.97,weaker inhibition effect,6.82,708.2,⅓,lower critical toxicity,9.6,14.4,very strong effect,"BuChE/AChE (AChE): >500; inhibition at 1 µM (AChE; 1 μM): 90.2%; pIC50 (AChE; read-out: inhibition activity AChE IC50): 7.08; delitescence of get-down (sec ± SEM) ([1]; scopolamine + derivative 3 + 0.3 mg/kg ip + po): 64.0 ± 9.8 s; inhibition at 10 µM (BuChE): 0%; No. of mistakes in operation before reaching the standard, reference memory (X + SEM) [6, 11]: 0.67; No. of mistakes in operation before reaching the standard, working memory (X + SEM) [6, 11]: 0.33"
CC=C1C2C=C(C)CC1(N=Cc1c(O)cc(OC)cc1OC)c1ccc(=O)[nH]c1C2 (stereo not drawn) [derivative No. 19],reversible,71.6 ± 14.5,92.2 ± 15.5,very strong effect,highly effective selective inhibitors,6.84,722.1,remarkable inhibition effect,slightly weaker,apparently stronger,3.98,weaker inhibition effect,6.84,724.6,⅓,lower critical toxicity,11.1,14.1,very strong effect,"delitescence of get-down (sec ± SEM) ([1]; scopolamine + derivative 2 + 0.1 mg/kg ip + po): 48.9 ± 12.6 s; delitescence of get-down (sec ± SEM) ([1]; scopolamine + derivative 2 + 0.3 mg/kg ip + po): 99.8 ± 16.4 s; No. of mistakes in operation before reaching the standard, reference memory (X + SEM) [6, 12]: 1.33 ± 0.21; No. of mistakes in operation before reaching the standard, working memory (X + SEM) [6, 12]: 1.33; No. of mistakes in operation before reaching the standard, reference memory (X + SEM) [6, 13]: 0.33; No. of mistakes in operation before reaching the standard, working memory (X + SEM) [6, 13]: 0.17"
